Laboratory results reported in PubChem BioAssay (NCI).
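Tested at 5 concentrations; 48 h exposure; 96-well plates; endpoints linearly interpolated, else capped at highest concentration. TGI: concentration producing complete growth inhibition.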

How the values were obtained:
Assay in all cases: NCI anticancer screen, dose series, 48 h
HCT-116 colon = test system: HCT-116 colon
786-0 renal = test system: 786-0 renal
U251 CNS = test system: U251 CNS
LOX IMVI melanoma = test system: LOX IMVI melanoma
UO-31 renal = test system: UO-31 renal
OVCAR-4 ovarian = test system: OVCAR-4 ovarian
PC-3 prostate = test system: PC-3 prostate
MDA-MB-435 = test system: MDA-MB-435
SF-539 CNS = test system: SF-539 CNS
HT29 colon = test system: HT29 colon
TK-10 renal = test system: TK-10 renal
NCI-H460 lung = test system: NCI-H460 lung
SF-295 CNS = test system: SF-295 CNS
SF-268 CNS = test system: SF-268 CNS
EKVX NSCLC = test system: EKVX NSCLC
COLO 205 colon = test system: COLO 205 colon
MDA-MB-231 breast = test system: MDA-MB-231 breast
A498 renal = test system: A498 renal
ACHN renal = test system: ACHN renal
HOP-92 NSCLC = test system: HOP-92 NSCLC

Row | Structure (SMILES) | TGI (HCT-116 colon) | TGI (786-0 renal) | TGI (U251 CNS) | TGI (LOX IMVI melanoma) | TGI (UO-31 renal) | TGI (OVCAR-4 ovarian) | TGI (PC-3 prostate) | TGI (MDA-MB-435) | TGI (SF-539 CNS) | TGI (HT29 colon) | TGI (TK-10 renal) | TGI (NCI-H460 lung) | TGI (SF-295 CNS) | TGI (SF-268 CNS) | TGI (EKVX NSCLC) | TGI (COLO 205 colon) | TGI (MDA-MB-231 breast) | TGI (A498 renal) | TGI (ACHN renal) | TGI (HOP-92 NSCLC)
1 | N#C/C(N)=C(\C#N)N=CNc1ccccc1N | > 100 µM | > 100 µM | > 100 µM | > 100 µM | > 100 µM | > 100 µM | > 100 µM | > 100 µM | > 100 µM | > 100 µM | > 100 µM | > 100 µM | > 100 µM | > 100 µM | > 100 µM | > 100 µM | > 100 µM | > 100 µM | > 100 µM | –
2 | CCC1CCN=C(Cn2cc(C)c(=O)[nH]c2=O)N1 (centres undefined) | > 100 µM | > 100 µM | > 100 µM | > 100 µM | > 100 µM | – | > 100 µM | – | – | > 100 µM | > 100 µM | > 100 µM | > 100 µM | > 100 µM | > 100 µM | > 100 µM | > 100 µM | > 100 µM | > 100 µM | > 100 µM
3 | COC(=O)c1cc(/C=C2\Cc3cc4c(cc3C2=O)CCC4)cc2c1CCC2 | > 100 µM | > 100 µM | > 100 µM | > 100 µM | > 100 µM | > 100 µM | > 100 µM | > 100 µM | > 100 µM | > 100 µM | > 100 µM | > 100 µM | > 100 µM | > 100 µM | > 100 µM | > 100 µM | > 100 µM | > 100 µM | > 100 µM | –
4 | COc1cc(OC)nc(NC(=O)NS(=O)(=O)c2cccc3ncn(C)c(=O)c23)n1 | > 100 µM | > 100 µM | > 100 µM | > 100 µM | > 100 µM | > 100 µM | – | > 100 µM | > 100 µM | > 100 µM | > 100 µM | – | > 100 µM | > 100 µM | > 100 µM | > 100 µM | > 100 µM | > 100 µM | > 100 µM | > 100 µM
5 | O=C(Nc1ccc(F)cc1)c1cc2ccc(O)cc2oc1=Nc1cccc(F)c1 | > 100 µM | > 100 µM | > 100 µM | 52.6 µM | – | > 100 µM | > 100 µM | > 100 µM | > 100 µM | > 100 µM | – | > 100 µM | > 100 µM | > 100 µM | 64.4 µM | > 100 µM | – | > 100 µM | > 100 µM | –
6 | CN(C)N1C(=O)CC2(CCN(CCCC(=O)c3ccc(F)cc3)CC2)C1=O | > 100 µM | > 100 µM | > 100 µM | > 100 µM | > 100 µM | – | > 100 µM | > 100 µM | > 100 µM | > 100 µM | > 100 µM | > 100 µM | > 100 µM | > 100 µM | – | > 100 µM | > 100 µM | > 100 µM | > 100 µM | –
7 | O=C1/C(=C/c2cccc3ccccc23)Cc2ccccc21 | – | 48.3 µM | 52 µM | > 100 µM | > 100 µM | 53 µM | 54.3 µM | – | 79.4 µM | > 100 µM | > 100 µM | > 100 µM | – | 65.7 µM | > 100 µM | – | – | > 100 µM | > 100 µM | –
8 | COc1ccc(C2Oc3c(cccc3OC)C=C2[N+](=O)[O-])cc1 (centres undefined) | 2.55 µM | 4.98 µM | 3.76 µM | 2.81 µM | 3.14 µM | 10.1 µM | 5.16 µM | 10.9 µM | – | 4.59 µM | 7.5 µM | 4.15 µM | 16.3 µM | 11.3 µM | 25.6 µM | 6.95 µM | 13.6 µM | – | 3.38 µM | –
9 | Cc1cc2nc3c(C#N)c(-c4ccccc4)cc(Nc4cccc(C(F)(F)F)c4)n3c2cc1C | 10.8 µM | 18.6 µM | – | > 100 µM | 25.8 µM | 50.5 µM | 16 µM | 30.6 µM | 13.6 µM | – | 33.6 µM | 11.5 µM | 44.6 µM | 61.2 µM | 37.9 µM | > 100 µM | 16.2 µM | 29.5 µM | 28.5 µM | –
10 | CCC(C)(C)c1ccc(Oc2cccc(C(=O)O)c2)cc1 | > 100 µM | > 100 µM | > 100 µM | > 100 µM | > 100 µM | > 100 µM | > 100 µM | > 100 µM | > 100 µM | > 100 µM | > 100 µM | > 100 µM | > 100 µM | > 100 µM | > 100 µM | > 100 µM | > 100 µM | > 100 µM | > 100 µM | –
11 | O=C(O)CCCC#CCCCC(=O)O | > 100 µM | > 100 µM | > 100 µM | > 100 µM | > 100 µM | > 100 µM | > 100 µM | > 100 µM | > 100 µM | > 100 µM | > 100 µM | > 100 µM | > 100 µM | > 100 µM | > 100 µM | > 100 µM | – | > 100 µM | > 100 µM | > 100 µM
12 | CCC(/C=C/c1ccccc1)=N\N=C(\C=C\c1ccccc1)CC | > 100 µM | > 100 µM | > 100 µM | > 100 µM | > 100 µM | > 100 µM | – | – | – | > 100 µM | > 100 µM | > 100 µM | > 100 µM | > 100 µM | > 100 µM | > 100 µM | – | > 100 µM | > 100 µM | –
13 | CCCN1CN(C(C(=O)N[C@@H]2C(=O)N3C(C(=O)O)=C(C)CSC23)c2ccccc2)CSC1=S (some centres undefined) | > 100 µM | > 100 µM | > 100 µM | > 100 µM | > 100 µM | > 100 µM | – | – | > 100 µM | > 100 µM | > 100 µM | > 100 µM | > 100 µM | > 100 µM | > 100 µM | > 100 µM | – | > 100 µM | > 100 µM | > 100 µM
